{
  "source": "patent US20090155367A1",
  "about": "“Occlusion of Fallopian Tubes” (priority 2005, published 2009)",
  "key": {"[1]": {"test_system": "beef muscle tissue (fillet mignon)", "test": "Tissue necrosis with AgNO3 bearing beads placed on beef muscle tissue", "design": "key: +: slight visible pitting of the tissue surface; ++: moderate pitting of tissue surface with slight blackening of the tissue; +++: significant pitting with moderate blackening of the tissue; ++++: severe pitting with complete blackening of the tissue; +++++: severe pitting with complete blackening of the tissue, spreading beyond the point of contact; −−−: no observed necrosis", "settings": "tissue under bead on beef muscle surface", "source_text": "The degree of necrosis was rated as follows: slight visible pitting of the tissue surface (+); moderate pitting of tissue surface with slight blackening of the tissue (++); significant pitting with moderate blackening of the tissue (+++); severe pitting with complete blackening of the tissue (++++); severe pitting with complete blackening of the tissue, spreading beyond the point of contact (+++++); and no observed necrosis (−−−)"}, "[2]": {"test_system": "Fallopian tubes", "settings": "even when massive tubal necrosis was achieved; cited from earlier work"}},
  "data": [
    {"smiles": "O=[N+]([O-])[O-].[Ag+]", "note": "[AgNO3 Crystal, silver nitrate]", "values": [
      {"measurement": "Tissue Necrosis (degree of necrosis)", "setting": "[1]; Time 5 minutes", "result": "+++"},
      {"measurement": "Tissue Necrosis (degree of necrosis)", "setting": "[1]; Time 10 minutes", "result": "++++"},
      {"measurement": "Tissue Necrosis (degree of necrosis)", "setting": "[1]; Time 15 minutes", "result": "+++++"},
      {"measurement": "Tissue Necrosis (degree of necrosis)", "setting": "[1]; Time 20 minutes", "result": "+++++"},
      {"measurement": "Fallopian tube closure after application", "setting": "[2]", "result": "a significant proportion of Fallopian tubes remained open"}
    ]}
  ]
}
